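1) Cells in 96-well plates. 2) Compound, 48 h, 5 concentrations. 3) Linear interpolation between surrounding doses. 4) Unreached endpoint = highest concentration. The concentration for 50% growth inhibition is given as GI50.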 Activity calls are given as the source filed them. Rule as the data show it: active = GI50 up to about 1.1 µM and inactive = higher.
What was measured:
Experiment in all cases: NCI-60 cell line screen, 48 h
786-0 = system: 786-0
A498 = system: A498
A549 = system: A549
ACHN = system: ACHN
BT-549 = system: BT-549
CAKI-1 = system: CAKI-1
CCRF-CEM = system: CCRF-CEM
COLO 205 = system: COLO 205
DU-145 = system: DU-145
EKVX = system: EKVX
HCC 2998 = system: HCC 2998
HCT-116 = system: HCT-116
HCT-15 = system: HCT-15
HL-60 = system: HL-60
HOP-62 = system: HOP-62
HOP-92 = system: HOP-92
HT-29 = system: HT-29
Hs-578T = system: Hs-578T
IGROV-1 = system: IGROV-1
K562 = system: K562
KM12 = system: KM12
LOX IMVI = system: LOX IMVI
M14 = system: M14
MCF7 = system: MCF7
MDA-MB-231 = system: MDA-MB-231
MDA-MB-435 = system: MDA-MB-435
MDA-N = system: MDA-N
MOLT-4 = system: MOLT-4
NCI-H226 = system: NCI-H226
NCI-H23 = system: NCI-H23
NCI-H460 = system: NCI-H460
NCI/ADR-RES = system: NCI/ADR-RES
OVCAR-3 = system: OVCAR-3
OVCAR-4 = system: OVCAR-4
OVCAR-5 = system: OVCAR-5
OVCAR-8 = system: OVCAR-8
PC-3 = system: PC-3
RPMI-8226 = system: RPMI-8226
RXF 393 = system: RXF 393
SF-268 = system: SF-268
SF-295 = system: SF-295
SF-539 = system: SF-539
SK-MEL-2 = system: SK-MEL-2
SK-MEL-5 = system: SK-MEL-5
SK-OV-3 = system: SK-OV-3
SN12C = system: SN12C
SNB-19 = system: SNB-19
SNB-75 = system: SNB-75
SR = system: SR
SW-620 = system: SW-620
T47D = system: T47D
TK-10 = system: TK-10
U-251 = system: U-251
UACC-257 = system: UACC-257
UACC-62 = system: UACC-62
UO-31 = system: UO-31
Malme-3M = system: Malme-3M
NCI-H522 = system: NCI-H522
SK-MEL-28 = system: SK-MEL-28

For Cn1c(-c2ccccc2)cc(-c2cccs2)c1-c1ccsc1, the GI50 (786-0) was > 100 µM (inactive), the GI50 (A498) was > 100 µM (inactive) and the GI50 (A549) was > 100 µM (inactive). The GI50 (ACHN) was > 100 µM (inactive), the GI50 (BT-549) was > 100 µM (inactive) and the GI50 (CAKI-1) was > 100 µM (inactive). For the same compound, the GI50 (CCRF-CEM) was > 100 µM (inactive), the GI50 (COLO 205) was > 100 µM (inactive) and the GI50 (DU-145) was > 100 µM (inactive). For the same compound, the GI50 (EKVX) was > 100 µM (inactive), the GI50 (HCC 2998) was > 100 µM (inactive) and the GI50 (HCT-116) was 61.5 µM (inactive). For the same compound, the GI50 (HCT-15) was > 100 µM, the GI50 (HL-60) was > 100 µM (inactive) and the GI50 (HOP-62) was > 100 µM (inactive). The GI50 (HOP-92) was > 100 µM (inactive), the GI50 (HT-29) was > 100 µM (inactive) and the GI50 (Hs-578T) was > 100 µM (inactive). For the same compound, the GI50 (IGROV-1) was > 100 µM (inactive), the GI50 (K562) was > 100 µM (inactive) and the GI50 (KM12) was 80.5 µM (inactive). For the same compound, the GI50 (LOX IMVI) was > 100 µM (inactive), the GI50 (M14) was > 100 µM (inactive) and the GI50 (MCF7) was 47.4 µM (inactive). The GI50 (MDA-MB-231) was > 100 µM (inactive), the GI50 (MDA-MB-435) was > 100 µM (inactive) and the GI50 (MDA-N) was > 100 µM (inactive). The GI50 (MOLT-4) was > 100 µM (inactive), the GI50 (NCI-H226) was > 100 µM (inactive) and the GI50 (NCI-H23) was > 100 µM (inactive). For the same compound, the GI50 (NCI-H460) was > 100 µM (inactive), the GI50 (NCI/ADR-RES) was > 100 µM (inactive) and the GI50 (OVCAR-3) was > 100 µM (inactive). The GI50 (OVCAR-4) was > 100 µM (inactive), the GI50 (OVCAR-5) was > 100 µM (inactive) and the GI50 (OVCAR-8) was > 100 µM (inactive). For the same compound, the GI50 (PC-3) was > 100 µM (inactive), the GI50 (RPMI-8226) was 64.1 µM (inactive) and the GI50 (RXF 393) was > 100 µM (inactive). For the same compound, the GI50 (SF-268) was > 100 µM (inactive), the GI50 (SF-295) was > 100 µM (inactive) and the GI50 (SF-539) was > 100 µM (inactive). For the same compound, the GI50 (SK-MEL-2) was > 100 µM (inactive), the GI50 (SK-MEL-5) was > 100 µM (inactive) and the GI50 (SK-OV-3) was > 100 µM (inactive). The GI50 (SN12C) was > 100 µM (inactive), the GI50 (SNB-19) was > 100 µM (inactive) and the GI50 (SNB-75) was > 100 µM (inactive). For the same compound, the GI50 (SR) was > 100 µM (inactive), the GI50 (SW-620) was > 100 µM (inactive) and the GI50 (T47D) was > 100 µM (inactive). For the same compound, the GI50 (TK-10) was > 100 µM (inactive), the GI50 (U-251) was > 100 µM (inactive) and the GI50 (UACC-257) was > 100 µM (inactive). The GI50 (UACC-62) was > 100 µM (inactive) and the GI50 (UO-31) was > 100 µM (inactive).

With COc1c2c(cc3c1OCO3)[C@]13C=C[C@H](OC)C[C@H]1N(C2)CC3O (some centres undefined) the GI50 (786-0) was > 100 µM (inactive), the GI50 (A498) was > 100 µM (inactive) and the GI50 (A549) was > 100 µM (inactive). The GI50 (ACHN) was > 100 µM (inactive), the GI50 (BT-549) was > 100 µM (inactive) and the GI50 (CAKI-1) was > 100 µM (inactive). For the same compound, the GI50 (CCRF-CEM) was > 100 µM (inactive), the GI50 (COLO 205) was > 100 µM (inactive) and the GI50 (DU-145) was > 100 µM (inactive). The GI50 (EKVX) was > 100 µM (inactive), the GI50 (HCC 2998) was > 100 µM (inactive) and the GI50 (HCT-116) was > 100 µM (inactive). The GI50 (HCT-15) was > 100 µM, the GI50 (HL-60) was > 100 µM (inactive) and the GI50 (HOP-62) was > 100 µM (inactive). For the same compound, the GI50 (HOP-92) was > 100 µM (inactive), the GI50 (HT-29) was > 100 µM (inactive) and the GI50 (Hs-578T) was > 100 µM (inactive). For the same compound, the GI50 (IGROV-1) was > 100 µM (inactive), the GI50 (KM12) was > 100 µM (inactive) and the GI50 (LOX IMVI) was > 100 µM (inactive). The GI50 (M14) was > 100 µM (inactive), the GI50 (MCF7) was > 100 µM (inactive) and the GI50 (MDA-MB-231) was > 100 µM (inactive). The GI50 (MDA-MB-435) was > 100 µM (inactive), the GI50 (MDA-N) was > 100 µM (inactive) and the GI50 (MOLT-4) was 99.1 µM (inactive). For the same compound, the GI50 (Malme-3M) was > 100 µM (inactive), the GI50 (NCI-H226) was > 100 µM (inactive) and the GI50 (NCI-H23) was > 100 µM (inactive). The GI50 (NCI-H460) was > 100 µM (inactive), the GI50 (NCI-H522) was > 100 µM (inactive) and the GI50 (NCI/ADR-RES) was > 100 µM (inactive). For the same compound, the GI50 (OVCAR-3) was > 100 µM (inactive), the GI50 (OVCAR-4) was > 100 µM (inactive) and the GI50 (OVCAR-5) was > 100 µM (inactive). The GI50 (OVCAR-8) was > 100 µM (inactive), the GI50 (PC-3) was > 100 µM (inactive) and the GI50 (RPMI-8226) was > 100 µM (inactive). For the same compound, the GI50 (RXF 393) was > 100 µM (inactive), the GI50 (SF-268) was > 100 µM (inactive) and the GI50 (SF-295) was > 100 µM (inactive). The GI50 (SF-539) was > 100 µM (inactive), the GI50 (SK-MEL-28) was > 100 µM (inactive) and the GI50 (SK-MEL-2) was > 100 µM (inactive). The GI50 (SK-MEL-5) was > 100 µM (inactive), the GI50 (SK-OV-3) was > 100 µM (inactive) and the GI50 (SN12C) was > 100 µM (inactive). For the same compound, the GI50 (SNB-19) was > 100 µM (inactive), the GI50 (SR) was 18.4 µM (inactive) and the GI50 (SW-620) was > 100 µM (inactive). The GI50 (T47D) was > 100 µM (inactive), the GI50 (TK-10) was > 100 µM (inactive) and the GI50 (U-251) was > 100 µM (inactive). The GI50 (UACC-257) was > 100 µM (inactive), the GI50 (UACC-62) was > 100 µM (inactive) and the GI50 (UO-31) was > 100 µM (inactive).

In the case of CC1=C(C(=O)NNC(=O)C[N+](C)(C)C)CC(C(=O)NNC(=O)C[N+](C)(C)C)=C(C)N1, the GI50 (786-0) was > 100 µM (inactive), the GI50 (A498) was 61.7 µM (inactive) and the GI50 (A549) was > 100 µM (inactive). For the same compound, the GI50 (ACHN) was > 100 µM (inactive), the GI50 (BT-549) was > 100 µM (inactive) and the GI50 (CAKI-1) was > 100 µM (inactive). For the same compound, the GI50 (CCRF-CEM) was 21.8 µM (inactive), the GI50 (COLO 205) was > 100 µM (inactive) and the GI50 (DU-145) was > 100 µM (inactive). For the same compound, the GI50 (EKVX) was > 100 µM (inactive), the GI50 (HCC 2998) was > 100 µM (inactive) and the GI50 (HCT-116) was > 100 µM (inactive). For the same compound, the GI50 (HCT-15) was > 100 µM, the GI50 (HL-60) was 24.9 µM (inactive) and the GI50 (HOP-62) was > 100 µM (inactive). For the same compound, the GI50 (HOP-92) was 71.8 µM (inactive), the GI50 (HT-29) was > 100 µM (inactive) and the GI50 (Hs-578T) was > 100 µM (inactive). For the same compound, the GI50 (IGROV-1) was > 100 µM (inactive), the GI50 (K562) was > 100 µM (inactive) and the GI50 (KM12) was > 100 µM (inactive). The GI50 (LOX IMVI) was > 100 µM (inactive), the GI50 (M14) was > 100 µM (inactive) and the GI50 (MCF7) was > 100 µM (inactive). The GI50 (MDA-MB-231) was > 100 µM (inactive), the GI50 (MDA-MB-435) was > 100 µM (inactive) and the GI50 (MDA-N) was > 100 µM (inactive). The GI50 (MOLT-4) was > 100 µM (inactive), the GI50 (NCI-H226) was > 100 µM (inactive) and the GI50 (NCI-H23) was > 100 µM (inactive). For the same compound, the GI50 (NCI-H460) was > 100 µM (inactive), the GI50 (NCI-H522) was > 100 µM (inactive) and the GI50 (NCI/ADR-RES) was > 100 µM (inactive). The GI50 (OVCAR-3) was > 100 µM (inactive), the GI50 (OVCAR-4) was > 100 µM (inactive) and the GI50 (OVCAR-5) was > 100 µM (inactive). For the same compound, the GI50 (OVCAR-8) was > 100 µM (inactive), the GI50 (PC-3) was > 100 µM (inactive) and the GI50 (RPMI-8226) was > 100 µM (inactive). The GI50 (RXF 393) was > 100 µM (inactive), the GI50 (SF-268) was > 100 µM (inactive) and the GI50 (SF-295) was > 100 µM (inactive). The GI50 (SF-539) was > 100 µM (inactive), the GI50 (SK-MEL-2) was > 100 µM (inactive) and the GI50 (SK-MEL-5) was > 100 µM (inactive). The GI50 (SK-OV-3) was > 100 µM (inactive), the GI50 (SN12C) was > 100 µM (inactive) and the GI50 (SNB-19) was > 100 µM (inactive). For the same compound, the GI50 (SR) was 35.6 µM (inactive), the GI50 (SW-620) was > 100 µM (inactive) and the GI50 (T47D) was 63.2 µM (inactive). The GI50 (TK-10) was > 100 µM (inactive), the GI50 (U-251) was > 100 µM (inactive) and the GI50 (UACC-257) was > 100 µM (inactive). The GI50 (UACC-62) was > 100 µM (inactive) and the GI50 (UO-31) was 68.4 µM (inactive).
